From the NIST ThermoML archive (doi:10.1016/j.jct.2011.11.005)
Several values for one entry are separate records, joined by “and”; a condition that tells them apart may be missing. Equal entries are not always repeated. Numbers after ± are expanded uncertainties.

Legend:
[1] = activity coefficient (dimensionless); of the first substance listed, at infinite dilution; xn = mol fraction of the nth substance listed; settings: 101.3 kPa, Liquid, x1 = 0
[2] = 101.33 kPa, Liquid, Vibrating tube method

Cc1ccccc1 [toluene] + CC(=O)[O-].CCn1cc[n+](C)c1
activity coefficient, [1]
Settings	313 K	333 K	353 K	363 K	373 K	383 K	393 K	403 K	413 K
Chromatography	–	–	–	6.07 and 6.21	6.08 and 5.92	6.12 and 6.03	6.23 and 5.87	6.28 and 6.04	7.11 and 6.37
open tubular wall-coated column chromatography	5.01 ± 0.5	5.41 ± 0.54	5.76 ± 0.58	5.81 ± 0.58	5.88 ± 0.59	6.03 ± 0.6	6.13 ± 0.61	6.47 ± 0.65	6.55 ± 0.66

CCCCCC [hexane] + CC(=O)[O-].CCn1cc[n+](C)c1
activity coefficient, [1]
Settings	313 K	333 K	353 K	373 K	393 K	413 K
Chromatography	86.4 and 90.5	82.4 and 80.7	65.9 and 71.3	66.1 and 72.7	58.8 and 55.3	91.2 and 66.5
open tubular wall-coated column chromatography	86.5 ± 8.7	80 ± 8	70.6 ± 7.1	–	–	–

CC#N [acetonitrile] + CC(=O)[O-].CCn1cc[n+](C)c1
activity coefficient, [1]
Settings	333 K	353 K	373 K	383 K	393 K	403 K
Chromatography	–	–	0.82 ± 0.05	0.85 and 0.88	0.87 ± 0.06	–
open tubular wall-coated column chromatography	0.76 ± 0.08	0.77 ± 0.08	0.86 ± 0.09	0.91 ± 0.09	0.89 ± 0.09	1.21 ± 0.14

C[N+](=O)[O-] [nitromethane] + CC(=O)[O-].CCn1cc[n+](C)c1
[1], Open tubular Wall-Coated Column Chromatography
Settings	activity coefficient
353 K	0.44 ± 0.04
373 K	0.46 ± 0.05
393 K	0.46 ± 0.05

C=CCCCC [hex-1-ene] + CC(=O)[O-].CCn1cc[n+](C)c1
activity coefficient, [1]
Settings	313 K	333 K	353 K	373 K	393 K	413 K
Chromatography	37.8 and 39	34.7 and 35.5	31.3 and 34.8	31 and 33.4	30.6 and 30.1	25 and 27
open tubular wall-coated column chromatography	36 ± 3.6	35.1 ± 3.5	–	–	–	–

CC(C)O [propan-2-ol] + CC(=O)[O-].CCn1cc[n+](C)c1
[1], Open tubular Wall-Coated Column Chromatography
Settings	activity coefficient
313 K	0.08 ± 0.01
333 K	0.11 ± 0.01
353 K	0.13 ± 0.01
373 K	0.15 ± 0.02
393 K	0.16 ± 0.02
413 K	0.19 ± 0.02

CCOC(C)=O [ethyl acetate] + CC(=O)[O-].CCn1cc[n+](C)c1
activity coefficient, [1]
Settings	313 K	333 K	353 K	373 K	393 K	403 K	413 K
Chromatography	–	5.41 and 4.67	5.48 and 4.72	5.24 and 4.67	5.29 and 4.76	5.47 and 5.05	5.44 and 5.11
open tubular wall-coated column chromatography	4.41 ± 0.44	4.77 ± 0.48	5.24 ± 0.53	5.62 ± 0.56	5.35 ± 0.54	5.32 ± 0.53	–

CCC(C)(C)O [2-methylbutan-2-ol] + CC(=O)[O-].CCn1cc[n+](C)c1
[1], Open tubular Wall-Coated Column Chromatography
Settings	activity coefficient
353 K	0.29 ± 0.03
373 K	0.35 ± 0.04
393 K	0.42 ± 0.04
413 K	0.49 ± 0.05

c1ccccc1 [benzene] + CC(=O)[O-].CCn1cc[n+](C)c1
activity coefficient, [1]
Settings	313 K	333 K	353 K	373 K	383 K	393 K	403 K	413 K
Chromatography	–	–	3.41 and 3.39	3.45 and 3.31	3.49 and 3.62	3.52 and 3.45	4.15 and 3.67	4.1 and 4.11
open tubular wall-coated column chromatography	2.8 ± 0.28	3.06 ± 0.31	3.43 ± 0.34	3.44 ± 0.34	3.49 ± 0.35	3.68 ± 0.37	3.91 ± 0.4	4.28 ± 0.43

COCCOC [1,2-dimethoxyethane] + CC(=O)[O-].CCn1cc[n+](C)c1
[1], Open tubular Wall-Coated Column Chromatography
Settings	activity coefficient
313 K	3.56 ± 0.36
333 K	3.88 ± 0.39
353 K	4.11 ± 0.41
373 K	4.51 ± 0.45
393 K	4.81 ± 0.48

CCCO [propan-1-ol] + CC(=O)[O-].CCn1cc[n+](C)c1
[1], Open tubular Wall-Coated Column Chromatography
Settings	activity coefficient
313 K	0.06 ± 0.01
333 K	0.07 ± 0.01
353 K	0.09 ± 0.01
373 K	0.1 ± 0.01
393 K	0.11 ± 0.01
413 K	0.13 ± 0.01

C1CCOC1 [tetrahydrofuran] + CC(=O)[O-].CCn1cc[n+](C)c1
activity coefficient, [1]
Settings	313 K	333 K	353 K	373 K	383 K	393 K	403 K	413 K
Chromatography	–	3.91 and 3.36	3.92 and 3.37	3.68 and 3.5	–	3.88 and 3.35	4.02 and 3.55	4.13 and 3.9
open tubular wall-coated column chromatography	3.22 ± 0.32	3.49 ± 0.35	3.63 ± 0.36	3.67 ± 0.37	3.94 ± 0.4	4.02 ± 0.4	4 ± 0.4	–

CC(C)(C)O [2-methylpropan-2-ol] + CC(=O)[O-].CCn1cc[n+](C)c1
[1], Open tubular Wall-Coated Column Chromatography
Settings	activity coefficient
313 K	0.16 ± 0.02
333 K	0.18 ± 0.02
353 K	0.22 ± 0.02
373 K	0.27 ± 0.03
393 K	0.3 ± 0.03
413 K	0.37 ± 0.04

C1CCCCC1 [cyclohexane] + CC(=O)[O-].CCn1cc[n+](C)c1
activity coefficient, [1]
Settings	313 K	333 K	353 K	373 K	383 K	393 K	413 K
Chromatography	36.2 and 35.5	30.9 and 31.6	27.3 and 29.1	27.4 and 29.3	26.9 and 25.6	26.5 and 28.9	24.8 and 24.3
open tubular wall-coated column chromatography	31.8 ± 3.2	31.5 ± 3.2	32.8 ± 3.3	–	–	30.3 ± 3	–

C1COCCO1 [1,4-dioxane] + CC(=O)[O-].CCn1cc[n+](C)c1
activity coefficient, [1]
Settings	333 K	353 K	373 K	393 K	403 K	413 K
Chromatography	–	–	2.56 and 2.43	2.63 and 2.32	2.75 and 2.44	2.77 and 2.46
open tubular wall-coated column chromatography	2.29 ± 0.23	2.28 ± 0.23	2.39 ± 0.24	2.52 ± 0.25	2.67 ± 0.27	2.58 ± 0.26

CCCCCCC [heptane] + CC(=O)[O-].CCn1cc[n+](C)c1
[1], Open tubular Wall-Coated Column Chromatography
Settings	activity coefficient
313 K	121 ± 12
333 K	146 ± 15
353 K	157 ± 16
373 K	173 ± 17

CC(=O)[O-].CCn1cc[n+](C)c1 [1-ethyl-3-methylimidazolium acetate]
[2]
Settings	mass density [kg/m3]
293.15 K	1100.87 ± 0.31
298.15 K	1097.83 ± 0.31
303.15 K	1094.77 ± 0.31
308.15 K	1091.71 ± 0.3
313.15 K	1088.65 ± 0.3
318.15 K	1085.61 ± 0.3
323.15 K	1082.57 ± 0.3
328.15 K	1079.55 ± 0.29
333.15 K	1076.54 ± 0.29
338.15 K	1073.54 ± 0.29
343.15 K	1070.55 ± 0.29
348.15 K	1067.58 ± 0.28
353.15 K	1064.61 ± 0.28
358.15 K	1061.65 ± 0.28
